2 compounds from patent US20160345582A1, “HERBICIDE COMPOSITIONS FOR WEED CONTROL” (Valent U.S.A., Corporation, priority 2015, published 2016) can be followed below.

Experiment [1] relates to Giant Foxtail. Put plainly: Field test 2013 (Example 2), post emergence weed control in corn. The class given is in vivo, Setaria faberi. As to conditions: Study 5; 30 DAT; topramezone 18.4, pyroxasulfone 90, atrazine 840 g ai/ha; applied at V5 corn stage.
The test system of experiment [2] is Barnyardgrass. The description is as above. Format: in vivo, Echinochloa crus-galli. As to conditions: 30 DAT, topramezone 18.4, pyroxasulfone 90 g ai/ha, applied at V5 corn stage.
For experiment [3], the system named is Broadleaf signalgrass. Described as above. The class given is in vivo, Brachiaria platyhylla. As to conditions: Study 7; 30 DAT; topramezone 18.4, pyroxasulfone 90 g ai/ha; applied at V5 corn stage.
Experiment [4] deals with Palmer Amaranth. The description is as above. As to conditions: Study 7; 30 DAT; topramezone 18.4, pyroxasulfone 90 g ai/ha; applied at V5 corn stage. The class given is in vivo, Amaranthus palmeri.
Experiment [5] concerns Velvetleaf. The description is as above. Format: in vivo, Abutilon theophrasti. As to conditions: Study 9; 30 DAT; topramezone 18.4, pyroxasulfone 90 g ai/ha; applied at V5 corn stage.
For experiment [6], the system named is Foxtail. Described as above. The class given is in vivo, Setaria species. The following applies: Study 6; 30 DAT; topramezone 18.4, pyroxasulfone 90 g ai/ha; applied at V5 corn stage.
The subject of experiment [7] is Yellow Nutsedge. Described as above. Format: in vivo, Cyperus esculentus. The following applies: Study 7; 30 DAT; topramezone 18.4, pyroxasulfone 90 g ai/ha; applied at V5 corn stage.
The subject of experiment [8] is Annual Grass. Put plainly: Field test 2011 (Example 1), post emergence weed control in corn. The class given is in vivo. The following applies: Study 2; 30 DAT; topramezone 18.4, pyroxasulfone 90 g ai/ha; applied at V5 corn stage, weeds 4 to 10 inches. As for the experimental part: (§1) In 2011, two field tests were conducted using similar protocols. Both studies were completed in Indiana, United States. Weeds were 4 to 10 inches in height at time of application. Untreated checks were included in the trial, however pyroxasulfone alone is not effective for post emergence weed control and was therefore not included as a standalone treatment. Roundup Ready corn (Zea maize) was used in the test as the crop plant utilizing a natural population of weeds. All of the treatments contained non-ionic surfactant at 0.25% v/v and were applied at the V5 corn growth stage. Applications were made utilizing a hand boom sprayer with application area for each treatment equating to 10 feet by 200 feet.
(§2) Topramezone was administered at 18.4 grams/hectare. Pyroxasulfone was administered at 90 grams/hectare.
(§3) Thirty days after treatment (“DAT”) readings were taken to determine the survival of Ivyleaf Morningglory, Yellow Nutsedge, Velvetleaf and Annual Grass. Survival ratings were taken by counting the number of alive and dead plants at the time of the reading. All data was analyzed using Bartlett's test and with p value of […] for determining significance of the results. The Effect of Topamezone and Pyroxasulfone on Weeds (% Control).”

The test system of experiment [9] is Ivyleaf Morningglory. The experiment is described as above. Format: in vivo, Ipomoea hederacea. As to conditions: Study 1; 30 DAT; topramezone 18.4, pyroxasulfone 90 g ai/ha; applied at V5 corn stage, weeds 4 to 10 inches. As to the method: as §1, §2, §3
In experiment [10] the test system is Velvetleaf. The description is as above. The class given is in vivo, Abutilon theophrasti. The following applies: Study 2; 30 DAT; topramezone 18.4, pyroxasulfone 90 g ai/ha; applied at V5 corn stage, weeds 4 to 10 inches. As to the method:
as §1, §2, §3

Experiment [11] concerns Yellow Nutsedge. The description is as above. As to conditions: Study 1; 30 DAT; topramezone 18.4, pyroxasulfone 90 g ai/ha; applied at V5 corn stage, weeds 4 to 10 inches. The class given is in vivo, Cyperus esculentus. As to the method: as §1, §2, §3
In experiment [12] the test system is Giant Ragweed. Put plainly: Field test 2013 (Example 2), post emergence weed control in corn. Format: in vivo, Ambrosia trifida. The following applies: Study 7; 30 DAT; topramezone 18.4, pyroxasulfone 90 g ai/ha; applied at V5 corn stage.
The test system of experiment [13] is Waterhemp. Described as above. Format: in vivo, Amaranthus tuberculatus. The following applies: 30 DAT, applied at V5 corn stage.
For experiment [14], the system named is Common Ragweed. The description is as above. The class given is in vivo, Ambrosia artemisiifolia. The following applies: Study 4; 30 DAT; topramezone 18.4, pyroxasulfone 90 g ai/ha; applied at V5 corn stage.
Experiment [15] relates to Fall Panicum. Described as above. Format: in vivo. The following applies: Study 3; 30 DAT; mesotrione 105, pyroxasulfone 90 g ai/ha; applied at V5 corn stage.

Consider `Cc1c(C(=O)c2cnn(C)c2O)ccc(S(C)(=O)=O)c1C1=NOCC1` [Topramezone, [3-(4,5-dihydro-1,2-oxazol-3-yl)-4-mesyl-o-tolyl](5-hydroxy-1-methylpyrazol-4-yl)methanone], for which the “% Control Giant Foxtail” value in experiment [1] is given as 87%. Also, the “% Control Barnyardgrass” value in experiment [2] (Study 7) stood at 80%; in experiment [2] (Study 9), 93%. In addition, the “% Control Broadleaf signalgrass” value in experiment [3] is reported as 90%. Further, the “% Control Palmer Amaranth” value in experiment [4] is given as 93%. The “% Control Velvetleaf” value in experiment [5] came out at 90%; in [10], 95%. Further, the “% Control Foxtail” value in experiment [6] was 98%. The entries for the “% Control Yellow Nutsedge” value in experiment [7] and in experiment [11] were 60% and 73%, respectively. The “% Control Annual Grass” value in [8] stood at 33%. The “% Control Ivyleaf Morningglory” value in experiment [9] turned out to be 68%. Also, the “% Control Giant Ragweed” value in experiment [12] is 91%. The “% Control Waterhemp” value in experiment [13] (Study 6, topramezone 18.4, pyroxasulfone 90 g ai/ha) was 94%; in [13] (Study 8, topramezone 18.4, pyroxasulfone 90 g ai/ha), 90%. In experiment [14], the “% Control Common Ragweed” value came to 94%.

As to `CS(=O)(=O)c1ccc(C(=O)C2C(=O)CCCC2=O)c([N+](=O)[O-])c1` [Mesotrione, 2[4-(methylsulfonyl)-2-nitrobenzoyl]cyclohexane-1,3-dione], the “% Control Fall Panicum” value in experiment [15] is listed as 98%. Further, in experiment [13] (Study 3, mesotrione 105, pyroxasulfone 90 g ai/ha), the “% Control Waterhemp” value worked out at 80%.
